Data as given in patent US5422118A, “Transdermal administration of amines with minimal irritation and high transdermal flux rate” (priority 1992, dated 1995).
Structures can show the parent of a compound that is named as a salt. Where two headings read alike, the source gives them in different places. Blank lines part the entries; values can stand above or below the compound they belong to.

Legend:
[1] = Procedure: Given this information and the empirically determined transdermal flux rate of the material, the required patch size in centimeters^2 for effective dosing can be determined. […] The estimated patch size is determined by dividing the calculated therapeutically effective dose rate by the in vitro transdermal flux rate.
The estimated patch size for such a composition can be calculated as described in detail above. […] Since water soluble salt forms of physiologically active amines are not at all soluble in nonpolar, nonvolatile solvents, these solvents cannot be used to increase their transdermal flux rate.
The transdermal patch sizes required to deliver an effective dosage of a selected group of physiologically active amines were evaluated as described above. […] DEET, however, is not an appropriate solvent for extended transdermal drug delivery because it is not a United States Pharmacopeia accepted ingredient.

[2] = cited from earlier work
[3] = system: rabbit back skin; test: Procedure C primary skin irritation tests in animals; conditions: 24 hour exposure, scored 24 and 72 hours
Procedure: Procedure C Primary Skin Irritation Tests in Animals Tests were performed on young adult albino rabbits (New Zealand White rabbits). Six rabbits were used for each test. The rabbits were prepared for the test by clipping the hair from the backs of the rabbits and any rabbit showing skin damage from the clipping was rejected from the testing. The application sites for the transdermal drug delivery (TDD) patch was intact skin. As an example, a formulation containing the test composition was incorporated into Poroplastic® transdermal patches. One TDD patch containing the test material was applied to one side of the rabbit's back. […] A one (1) inch square gauze patch, two single layers thick, was used to cover the test TDD patch. The animals were immobilized with patches secured in place by adhesive tape. The entire trunk of the animal was then wrapped with an impervious material for the twenty-four (24) hour exposure period. After 24 hours of exposure the patches were removed and the resulting reactions evaluated on the basis of the scoring system indicated below. Observations were again made at the end of a total of 72 hours (48 hours after the first reading). […]
After 24 hours of exposure the patches were removed and the resulting reactions evaluated on the basis of scores as described above.

[4] = system: skin
[5] = system: human forearm skin; test: Procedure B primary irritation study in humans (Finn Chambers, 24 hours, 0-4 erythema score)
Text: Procedure B Primary Irritation Study in Human- Alternative Method Finn Chambers (Epitest, Ltd OY, Tuusula, Finland) for epicutaneous testing of irritation on Scanpor adhesive (Norgesplaster A/S, Norway; 10 chambers) were used to test the primary irritancy of the test compound or composition. The formulations were introduced into the Finn Chambers using the following procedures. The adhesive covering was removed and the filter paper dots were placed into the chambers to be used. A disposable pasteur pipette was used to add one drop of formulation onto the filter paper. The pipette was then discarded. This was repeated for each formulation, up to 10 formulations. The subjects' forearm was lowered onto the scanpor adhesive and pressure was applied to insure adhesion. Two strips of 2" paper tape were overlapped over the scanpor adhesive. This remained in place for 24 hours, at which time it was removed and scored immediately using the table below. […]
Procedure B was used to evaluate the irritancy of physiologically active amines with or without complexation or solvation as described in more detail below.

[6] = system: human forearm skin; conditions: in vivo
Procedure: Patches of the saturated film 2 cm^2 in area were placed by test subjects on their own forearm skin and held in place by clear, nonocclusive adhesive (Tegaderm), allowing constant observation of the skin under the patch. After 17 hours, skin damage was evaluated by visual observation. The damage was ranked using the following scale: 1 (no discoloration, no erythema); 2 (pink coloration, slight erythema); 3 (reddening, moderate erythema, no burning); 4 (reddening and burning, moderate erythema); 5 (erythema and edema, with or without burning); 6 (severe erythema, edema, and burning); and 7 (severe erythema, severe burning, blistering, and edema).
A physiologically active amine in the free base form can be evaluated for skin irritancy by Procedures A, B, or C, set out above. Alternatively, irritation can be determined by other conventional patch test involving maintaining the amine in contact with the skin for 24 hours, and then observing the skin. The results are evaluated using the scales provided for Procedures A, B, or C as defined herein.

[7] = Transdermal flux rate through human skin in vitro (flow-through diffusion cell)
Text: A surgically-removed human skin source was used for all in vitro diffusion cell tests. […] Briefly, the full-thickness skin was immersed in distilled water heated to 60±1 degrees C for 45 seconds. The epidermal-stratum corneum layers were then peeled from the dermis. The epidermis-stratum corneum layers were then excised with a cork borer into circular disks 1.4 cm in diameter.
The skin was then mounted onto a Teflon flow-through diffusion cell. […] The skin sample of the donor portion of the diffusion cell was secured in place into the receptor cell. The flow-through cell consisted of a Teflon receptor cell with an exposed skin surface area of 0.32 cm^2 and a receptor cell volume of 0.13 mi. Sink conditions were maintained by pumping phosphate-buffered saline under the skin in the receptor cell at about 3 ml/hr. Thus, the receptor volume was replaced about 23 times per hour. These cells were then mounted on a water-jacketedbracket which maintained the receptor solution in the cells at 33 degrees C. The receptor media which was pumped under the cells was degassed in order to reduce air bubble formation under the skin. […]
Liquid scintillation fluor was added directly to the sample vials so that they could be measured with minimal liquid transfers and handling. The sample vials were then analyzed with appropriate quench correction techniques by liquid scintillation spectroscopy. […]

[8] = system: skin; conditions: oral form; Physician's Desk Reference; cited from earlier work
[9] = system: skin; conditions: WO 86/00806; cited from earlier work
[10] = system: skin; conditions: WO 86/00806; cited from earlier work; remark: listed apart in the source
[11] = Procedure B, human forearm, 24 hours, score 0-4

cal dose rate [1]: 98 µg/h
Compound: CN(C)CC[C@@H](c1ccc(Br)cc1)c1ccccn1 [dexbrompheniramine]
effective blood concentration ([2]; in vivo): 5.3 ng/mL

Compound: CN1CCCC1c1cccnc1 (stereo not drawn) [nicotine]
primary irritation score [3]: less than 2
cal dose rate ([1]; Table 2, clearance times effective blood level): 936 µg/h
Clearance ([2]; Table 2): 1200 mL/min
effective blood concentration ([2]; Table 2): 13 ng/mL

Compound: CN(C)CCC(c1ccc(Br)cc1)c1ccccn1 (stereo not drawn) [brompheniramine maleate]
skin irritation (in words) ([4]; in vivo): minimally irritating

Compound: C=CCCCCCCCCC(=O)O [Undecylenic acid]
Erythema Rating ([5]; in vivo): 0

Compound: CCCCCCCCCCCCCCCCCC(=O)OCCCC [butyl stearate]
Erythema Rating ([5]; in vivo): 0

estimated flux needed to achieve therapeutic blood levels [1]: 90 µg/h
Compound: CN(C)CCC(c1ccc(Cl)cc1)c1ccccn1 (stereo not drawn) [chlorpheniramine]
Erythema Rating [5, 11]: 4.0

Compound: CCCCCCCC/C=C\CCCCCCCC(=O)OCCC [propyl oleate]
Erythema Rating [5, 11]: 0

Compound: CN(C)CCC(c1ccc(Cl)cc1)c1ccccn1 (stereo not drawn) [chlorpheniramine maleate]
Erythema Rating ([5]; Procedure B, human forearm, 24 hours, score 0-4, listed as Chlorpheniramine maleate (1:1 molar ratio)): 0.0
skin irritation (in words) ([4]; procedure not specified): minimally irritating
Irritation Rating (1-7) [6]: 1.0

Compound: CN(C)CCOC(c1ccccc1)c1ccccc1 [diphenhydramine hydrochloride]
transdermal flux / skin penetration (in words) ([7]; human skin): do not permeate the skin with a therapeutically effective flux rate

Compound: CN(C)CCC(c1ccc(Cl)cc1)c1ccccn1 (stereo not drawn) [Chlorpheniramine Salicylate (1:1 M), Chlorpheniramine Salicylate]
Erythema Rating ([5]; Procedure B, human forearm, 24 hours, score 0-4, listed as Chlorpheniramine salicylate (1:1 molar ratio)): 0.0
Irritation Rating (1-7) [6]: 1.0

Compound: CCCCCCCC/C=C\CCCCCCCC(=O)O [Oleic acid]
Erythema Rating ([5]; in vivo): 0

Compound: COc1ccc(CCN(C)CCCC(C#N)(c2ccc(OC)c(OC)c2)C(C)C)cc1OC (stereo not drawn) [oral form of Varapamil, Varapamil]
adverse skin reactions (in words) [8]: arthralgia and rash, exanthema, hair loss, hyperkeratosis, macules, StevenJohnsons syndrome, and erythema multiforme

Transdermal flux rate ([7]; Table 2, applicant's compositions): 55.8 μg/cm2/hr
Compound: CN(C)CCOC(c1ccccc1)c1ccccc1 [diphenhydramine]

Compound: CCCCC/C=C\C/C=C\CCCCCCCC(=O)O [Linoleic acid]
Erythema Rating [5, 11]: 0

Compound: CCCCCCCC/C=C\CCCCCCCC(=O)OC(C)C [isopropyl oleate]
Erythema Rating [5, 11]: 0

Compound: CCCCCCCCCCCCCC(=O)OC(C)C [isopropyl myristate]
Erythema Rating ([5]; in vivo): 0.3

Compound: OCCOCCN1CCN(C(c2ccccc2)c2ccc(Cl)cc2)CC1 (stereo not drawn) [hydroxyzine]
irritation rating ([5]; in vivo): ≤ 2

Compound: CN1CCC(=C2c3ccccc3CCc3cccnc32)CC1 [azatadine]
dermal penetration (in words) [9]: good dermal penetration
dermal irritation or sensitization (in words) [10]: no dermal irritation or sensitization
